Reference: publication PMC10992376, “High coenzyme affinity chimeric amine dehydrogenase based on domain engineering” (Bioresources and Bioprocessing, 2022)
Read-outs that look alike come from different tables or passages of the source.

Test system: T1, cFLF-AmDH
T1 construct: gene pdh; KS/NL parents; C-terminal His6; E. coli BL21(DE3)
Assay: NADH oxidation at […] nm, Michaelis-Menten fit
Assay type: biochemical, Pseudobacillus badius
Conditions: 2 M NH4Cl/NH4OH, optimum pH and temperature (table note; Methods: 100 mM NH4Cl/NH4OH, pH 8.5, 30 °C)

Row | SMILES | Km (co-substrate NADH, ammonium, read-out: pFPA / Km) | Km (read-out: NADH / Km, co-substrate pFPA)
1 | CC(=O)Cc1ccc(F)cc1 [p-FPA] | 21.8 ± 2.67 mM | –
2 | NC(=O)C1=CN([C@@H]2O[C@H](COP(=O)(O)OP(=O)(O)OC[C@H]3O[C@@H](n4cnc5c(N)ncnc54)[C@H](O)[C@@H]3O)[C@@H](O)[C@H]2O)C=CC1 [NADH] | – | 0.49 ± 0.02 mM
